Calls of active or inactive are those of the source. The calls are words filed in the database; no cut-off is given here.
Columns and labels:
[1] = molecular target: Prothrombin (Homo sapiens) (UniProt P00734); test: Inhibition of factor 2a (unknown origin) at IC50 preincubated for 1 min followed by chromogenic substrate addition and measured for 2 mins; settings: time 3.0 min
[2] = molecular target: T1, Coagulation factor VII (Homo sapiens) (UniProt P08709); test: Inhibition of factor 7a (unknown origin) at IC50 using pefachrome factor VIIa as substrate preincubated for 1 min followed by chromogenic substrate addition and measured for 2 mins; settings: time 3.0 min
T1 sequence (whole entry): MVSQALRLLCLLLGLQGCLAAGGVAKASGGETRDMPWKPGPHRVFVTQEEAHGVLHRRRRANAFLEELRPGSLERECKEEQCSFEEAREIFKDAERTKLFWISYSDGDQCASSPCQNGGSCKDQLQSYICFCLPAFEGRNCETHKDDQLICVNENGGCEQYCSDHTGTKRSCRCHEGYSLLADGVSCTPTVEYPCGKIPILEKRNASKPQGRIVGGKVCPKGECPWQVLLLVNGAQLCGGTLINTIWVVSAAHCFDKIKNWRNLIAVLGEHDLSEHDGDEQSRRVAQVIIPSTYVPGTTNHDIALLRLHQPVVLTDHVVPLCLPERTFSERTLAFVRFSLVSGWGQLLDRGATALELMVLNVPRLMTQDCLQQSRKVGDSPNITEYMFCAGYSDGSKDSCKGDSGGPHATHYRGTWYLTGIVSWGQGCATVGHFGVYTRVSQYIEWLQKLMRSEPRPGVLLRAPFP

[3] = molecular target: Coagulation factor X (Homo sapiens) (UniProt P00742); test: Inhibition of factor 10a (unknown origin) at IC50 preincubated for 1 min followed by chromogenic substrate addition and measured for 2 mins; settings: time 3.0 min
Coagulation factor X (Homo sapiens), sequence (P00742 41-179 limits assumed): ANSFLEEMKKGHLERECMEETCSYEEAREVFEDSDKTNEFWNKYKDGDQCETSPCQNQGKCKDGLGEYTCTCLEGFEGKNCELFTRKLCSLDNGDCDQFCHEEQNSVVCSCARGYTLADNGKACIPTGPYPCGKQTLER
Coagulation factor X (Homo sapiens), sequence (P00742 235-488 limits assumed): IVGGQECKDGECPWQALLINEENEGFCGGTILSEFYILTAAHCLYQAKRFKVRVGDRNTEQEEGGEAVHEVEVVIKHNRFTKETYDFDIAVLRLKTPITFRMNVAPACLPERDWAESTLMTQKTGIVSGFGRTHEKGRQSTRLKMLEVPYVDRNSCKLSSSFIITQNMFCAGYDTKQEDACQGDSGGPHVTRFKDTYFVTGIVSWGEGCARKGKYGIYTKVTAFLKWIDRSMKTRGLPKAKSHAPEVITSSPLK

[4] = molecular target: Coagulation factor XI (Homo sapiens) (UniProt P03951); test: Inhibition of factor 11a (unknown origin) at IC50 using S-2366 as substrate preincubated for 1 min followed by chromogenic substrate addition and measured for 2 mins; settings: time 3.0 min
Coagulation factor XI (Homo sapiens), sequence (P03951 19-387 limits assumed): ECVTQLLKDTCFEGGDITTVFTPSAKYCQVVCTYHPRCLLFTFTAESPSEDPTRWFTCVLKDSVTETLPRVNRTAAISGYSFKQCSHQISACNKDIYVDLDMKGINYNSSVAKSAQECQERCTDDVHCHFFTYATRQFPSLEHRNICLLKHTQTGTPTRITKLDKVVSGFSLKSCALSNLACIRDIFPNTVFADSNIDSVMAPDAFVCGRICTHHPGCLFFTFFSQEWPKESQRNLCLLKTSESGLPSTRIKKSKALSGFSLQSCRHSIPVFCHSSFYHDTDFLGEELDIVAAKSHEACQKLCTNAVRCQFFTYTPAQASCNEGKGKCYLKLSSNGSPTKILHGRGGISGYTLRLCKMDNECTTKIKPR
Coagulation factor XI (Homo sapiens), sequence (P03951 388-625 limits assumed): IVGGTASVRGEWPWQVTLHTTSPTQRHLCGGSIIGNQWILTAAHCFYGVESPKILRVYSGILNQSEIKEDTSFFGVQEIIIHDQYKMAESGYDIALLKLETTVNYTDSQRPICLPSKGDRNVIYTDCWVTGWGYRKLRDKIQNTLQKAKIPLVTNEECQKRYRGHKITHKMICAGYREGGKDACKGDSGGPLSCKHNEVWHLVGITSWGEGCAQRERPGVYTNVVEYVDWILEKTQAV

[5] = molecular target: T2, Coagulation factor XII (Homo sapiens) (UniProt P00748); test: Inhibition of factor 12a (unknown origin) at IC50 using kallikrein chromogenic substrate preincubated for 1 min followed by chromogenic substrate addition and measured for 2 mins; settings: time 3.0 min
T2 sequence (whole entry): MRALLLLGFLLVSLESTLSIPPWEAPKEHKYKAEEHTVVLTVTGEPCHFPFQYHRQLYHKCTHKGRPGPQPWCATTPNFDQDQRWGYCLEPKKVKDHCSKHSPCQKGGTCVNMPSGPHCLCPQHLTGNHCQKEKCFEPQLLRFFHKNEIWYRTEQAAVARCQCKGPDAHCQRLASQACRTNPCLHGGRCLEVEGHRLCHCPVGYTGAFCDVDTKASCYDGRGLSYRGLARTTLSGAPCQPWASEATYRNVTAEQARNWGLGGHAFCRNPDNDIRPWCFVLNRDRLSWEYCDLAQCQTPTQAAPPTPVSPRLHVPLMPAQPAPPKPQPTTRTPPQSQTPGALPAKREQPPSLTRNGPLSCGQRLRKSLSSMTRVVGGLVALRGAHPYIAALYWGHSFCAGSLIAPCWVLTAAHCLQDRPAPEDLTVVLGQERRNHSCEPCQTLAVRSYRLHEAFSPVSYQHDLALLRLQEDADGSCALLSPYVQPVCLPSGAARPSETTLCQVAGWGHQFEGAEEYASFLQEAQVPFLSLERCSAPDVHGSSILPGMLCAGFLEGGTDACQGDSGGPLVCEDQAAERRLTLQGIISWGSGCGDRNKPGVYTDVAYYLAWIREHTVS

[6] = molecular target: Prothrombin (Homo sapiens) (UniProt P00734); test: Inhibition of factor 2a (unknown origin) at IC50 preincubated for 1 min followed by chromogenic substrate addition and measured for 2 mins in presence of AT-III; settings: time 3.0 min
[7] = molecular target: T1, Coagulation factor VII (Homo sapiens); test: Inhibition of factor 7a (unknown origin) at IC50 using pefachrome factor VIIa as substrate preincubated for 1 min followed by chromogenic substrate addition and measured for 2 mins in presence of AT-III; settings: time 3.0 min
[8] = molecular target: Coagulation factor X (Homo sapiens) (UniProt P00742); test: Inhibition of factor 10a (unknown origin) at IC50 preincubated for 1 min followed by chromogenic substrate addition and measured for 2 mins in presence of AT-III; settings: time 3.0 min
[9] = molecular target: Coagulation factor XI (Homo sapiens) (UniProt P03951); test: Inhibition of factor 11a (unknown origin) at IC50 using S-2366 as substrate preincubated for 1 min followed by chromogenic substrate addition and measured for 2 mins in presence of AT-III; settings: time 3.0 min
[10] = molecular target: T2, Coagulation factor XII (Homo sapiens); test: Inhibition of factor 12a (unknown origin) at IC50 using kallikrein chromogenic substrate preincubated for 1 min followed by chromogenic substrate addition and measured for 2 mins in presence of AT-III; settings: time 3.0 min
[11] = molecular target: Prothrombin (Homo sapiens) (UniProt P00734); test: Inhibition of factor 2a (unknown origin) at IC90 preincubated for 1 min followed by chromogenic substrate addition and measured for 2 mins in presence of AT-III; settings: time 3.0 min
[12] = molecular target: Coagulation factor XI (Homo sapiens) (UniProt P03951); test: Inhibition of factor 11a (unknown origin) at IC90 using S-2366 as substrate preincubated for 1 min followed by chromogenic substrate addition and measured for 2 mins in presence of AT-III; settings: time 3.0 min
[13] = molecular target: Coagulation factor X (Homo sapiens) (UniProt P00742); test: Inhibition of factor 10a (unknown origin) at IC90 preincubated for 1 min followed by chromogenic substrate addition and measured for 2 mins in presence of AT-III relative to control; settings: time 3.0 min
Plasma [14] = test: (§1) Anticoagulation activity in human plasma assessed as drug level causing 20 times doubling of APTT preincubated for 2 mins followed by APTT reagent and measured after 3 mins by coagulometric method relative to dHG-5; format: functional; settings: time 5 min
[15] = molecular target: T3, Coagulation factor IX/VIII (Homo sapiens) (UniProt P00740+P00451); test: (§2) Inhibition of human citrated plasma iXase (factor 8a-factor 9a complex) preincubated for 2 mins followed by factor 10 addition and measured after 1 min by FXa chromogenic substrate SXa-11 based assay relative to dHG-5; format: protein-complex assay; settings: time 3.0 min
Coagulation factor IX [16] = molecular target: T4, Coagulation factor IX (Homo sapiens, UniProt P00740); test: Inhibition of factor 9a (unknown origin) binding to immobilized biotinylated oHG-11 by biolayer interferometry relative to dHG-5
T4 sequence (P00740 47-191 limits assumed): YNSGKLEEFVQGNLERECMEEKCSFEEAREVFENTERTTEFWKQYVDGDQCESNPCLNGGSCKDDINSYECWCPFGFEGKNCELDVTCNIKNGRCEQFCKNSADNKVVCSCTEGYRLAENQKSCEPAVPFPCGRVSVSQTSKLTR
T4 sequence (P00740 227-461 limits assumed): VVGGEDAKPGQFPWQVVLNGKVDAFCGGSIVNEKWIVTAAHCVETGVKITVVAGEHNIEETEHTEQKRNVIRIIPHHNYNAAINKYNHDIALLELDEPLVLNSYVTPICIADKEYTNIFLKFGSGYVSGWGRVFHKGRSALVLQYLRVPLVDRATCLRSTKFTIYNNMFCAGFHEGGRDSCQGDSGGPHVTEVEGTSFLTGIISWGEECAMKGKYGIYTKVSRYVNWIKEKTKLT

Rattus norvegicus [17] = test: Antithrombotic activity in thromboplastin and stasis-induced Sprague-Dawley rat deep venous thrombosis model assessed as reduction in venous thrombosis at 1.66 mg/kg, sc administered 1 hr prior to thromboplastin addition for 20 secs followed by establishment of stasis for 20 mins relative to dHG-5; format: functional; settings: time 80.33 min, 1.339 h
Plasma [18] = test: as §1, with “of APTT by measuring activity potency of oligosaccharides multiplied by the percentage of oligosaccharides in dHG-5 preincubated for” for “of APTT preincubated for”; format: functional; settings: time 5 min
[19] = molecular target: T3, Coagulation factor IX/VIII (Homo sapiens); test: as §2, with “complex) assessed as activity potency of oligosaccharides multiplied by the percentage of oligosaccharides in dHG-5” for “complex)”; format: protein-complex assay; settings: time 3.0 min
Coagulation factor IX [20] = molecular target: T4, Coagulation factor IX; test: Inhibition of factor 9a (unknown origin) binding to immobilized biotinylated oHG-11 assessed as activity potency of oligosaccharides multiplied by the percentage of oligosaccharides in dHG-5 by biolayer interferometry relative to dHG-5
Rattus norvegicus [21] = test: Antithrombotic activity in thromboplastin and stasis-induced Sprague-Dawley rat deep venous thrombosis model assessed as reduction in venous thrombosis by measuring activity potency of oligosaccharides multiplied by the percentage of oligosaccharides in dHG-5 at 1.66 mg/kg, sc administered 1 hr prior to thromboplastin addition for 20 secs followed by establishment of stasis for 20 mins relative …; format: functional; settings: time 80.33 min, 1.339 h

inhibition [1]: inactive
inhibition (active/not active) [2]: inactive
inhibition [3]: inactive
inhibition [4]: inactive
inhibition [5]: inactive
inhibition [6]: inactive
inhibition [7]: inactive
inhibition [8]: inactive
inhibition [9]: inactive
inhibition [10]: inactive
inhibition [11]: Active
inhibition [12]: Active
inhibition [13]: inactive
Ratio [15]: 403 U
Ratio (Coagulation factor IX [16]): 235 U
Ratio [19]: 19.1 U
Ratio (Coagulation factor IX [20]): 11.2 U
Compound: CC(=O)N[C@H]1[C@H](O[C@H]2[C@H](O[C@@H]3O[C@@H](C)[C@@H](OS(=O)(=O)[O-])[C@@H](OS(=O)(=O)O)[C@@H]3O)[C@@H](O)[C@H](O[C@@H]3[C@@H](NC(C)=O)[C@H](O[C@H]4[C@H](O[C@@H]5O[C@@H](C)[C@@H](OS(=O)(=O)[O-])[C@@H](OS(=O)(=O)O)[C@@H]5O)[C@@H](O)[C@H](O[C@@H]5[C@@H](NC(C)=O)[C@H](O[C@H]6[C@H](O[C@@H]7O[C@@H](C)[C@@H](OS(=O)(=O)[O-])[C@@H](OS(=O)(=O)O)[C@@H]7O)[C@@H](O)[C@H](O[C@@H]7[C@@H](NC(C)=O)[C@H](O[C@H]8[C@H](O[C@@H]9O[C@@H](C)[C@@H](OS(=O)(=O)[O-])[C@@H](OS(=O)(=O)O)[C@@H]9O)[C@@H](O)[C@H](O[C@@H]9[C@@H](NC(C)=O)[C@H](O[C@@H]([C@H](O[C@@H]%10O[C@@H](C)[C@@H](OS(=O)(=O)[O-])[C@@H](OS(=O)(=O)O)[C@@H]%10O)[C@@H](O)CO)[C@H](O)C(=O)O)O[C@H](COS(=O)(=O)[O-])[C@@H]9OS(=O)(=O)[O-])O[C@@H]8C(=O)O)O[C@H](COS(=O)(=O)[O-])[C@@H]7OS(=O)(=O)[O-])O[C@@H]6C(=O)[O-])O[C@H](COS(=O)(=O)[O-])[C@@H]5OS(=O)(=O)[O-])O[C@@H]4C(=O)[O-])O[C@H](COS(=O)(=O)[O-])[C@@H]3OS(=O)(=O)[O-])O[C@@H]2C(=O)[O-])O[C@H](COS(=O)(=O)[O-])[C@H](OS(=O)(=O)[O-])[C@@H]1O[C@@H]1O[C@H](C(=O)[O-])[C@@H](O[C@@H]2O[C@H](COS(=O)(=O)[O-])[C@H](OS(=O)(=O)[O-])[C@H](O[C@@H]3O[C@H](C(=O)[O-])[C@@H](O[C@@H]4O[C@H](COS(=O)(=O)[O-])[C@H](OS(=O)(=O)[O-])[C@H](O[C@@H]5O[C@H](C(=O)O)[C@@H](O[C@@H]6O[C@H](COS(=O)(=O)[O-])[C@H](OS(=O)(=O)[O-])[C@H](O[C@@H]7OC(C(=O)O)=C[C@H](O[C@@H]8O[C@@H](C)[C@@H](OS(=O)(=O)[O-])[C@@H](OS(=O)(=O)O)[C@@H]8O)[C@H]7O)[C@H]6NC(C)=O)[C@H](O[C@@H]6O[C@@H](C)[C@@H](OS(=O)(=O)[O-])[C@@H](OS(=O)(=O)O)[C@@H]6O)[C@H]5O)[C@H]4NC(C)=O)[C@H](O[C@@H]4O[C@@H](C)[C@@H](OS(=O)(=O)[O-])[C@@H](OS(=O)(=O)O)[C@@H]4O)[C@H]3O)[C@H]2NC(C)=O)[C@H](O[C@@H]2O[C@@H](C)[C@@H](OS(=O)(=O)[O-])[C@@H](OS(=O)(=O)O)[C@@H]2O)[C@H]1O.[Na+].[Na+].[Na+].[Na+].[Na+].[Na+].[Na+].[Na+].[Na+].[Na+].[Na+].[Na+].[Na+].[Na+].[Na+].[Na+].[Na+].[Na+].[Na+].[Na+].[Na+].[Na+].[Na+].[Na+].[Na+].[Na+].[Na+].[Na+].[Na+].[Na+]
Ratio (Plasma [14]): 319.64 U
Ratio (Rattus norvegicus [17]): 284.73 U
Ratio (Plasma [18]): 15.15 U
Ratio (Rattus norvegicus [21]): 13.38 U

From ChEMBL document CHEMBL4765450, “The components and activities analysis of a novel anticoagulant candidate dHG-5” (Eur J Med Chem, 2020)
